Measured values published in PubChem BioAssay (NCI).
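96-well plates; 48 h exposure; 5 concentrations. Endpoints by linear interpolation between flanking doses. Not reached: highest tested concentration assigned. GI50 marks 50% less growth. TGI is the concentration that stops growth completely.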

Columns and labels:
Test in all cases: inhibition of tumour cell growth, NCI panel, 48 h
[1] = test system: OVCAR-5 ovarian
[2] = test system: SNB-75 CNS
[3] = test system: CAKI-1 renal
[4] = test system: T-47D breast
[5] = test system: UACC-257 melanoma
[6] = test system: SW-620 colon
[7] = test system: HT29 colon
[8] = test system: SNB-19 CNS
[9] = test system: SF-539 CNS
[10] = test system: NCI-H522 lung
[11] = test system: UO-31 renal
[12] = test system: SF-268 CNS
[13] = test system: LOX IMVI melanoma
[14] = test system: CCRF-CEM leukemia
[15] = test system: ACHN renal
[16] = test system: NCI-H460 lung
[17] = test system: HOP-92 NSCLC
[18] = test system: HOP-62 NSCLC
[19] = test system: A549 NSCLC
[20] = test system: RPMI-8226 leukemia
[21] = test system: NCI-H226 lung
[22] = test system: U251 CNS
[23] = test system: OVCAR-4 ovarian
[24] = test system: OVCAR-3 ovarian
[25] = test system: SK-OV-3 ovarian
[26] = test system: BT-549 breast
[27] = test system: COLO 205 colon
[28] = test system: IGROV1 ovarian
[29] = test system: HS 578T breast
[30] = test system: SR leukemia
[31] = test system: NCI/ADR-RES ovarian
[32] = test system: RXF 393 renal
[33] = test system: HCT-15 colon
[34] = test system: UACC-62 melanoma
[35] = test system: K-562 leukemia
[36] = test system: HCT-116 colon
[37] = test system: SN12C renal
[38] = test system: M14 melanoma
[39] = test system: MDA-MB-435
[40] = test system: MALME-3M melanoma
[41] = test system: MDA-MB-231 breast
[42] = test system: DU-145 prostate
[43] = test system: SF-295 CNS
[44] = test system: A498 renal
[45] = test system: HL-60(TB) leukemia
[46] = test system: 786-0 renal
[47] = test system: TK-10 renal
[48] = test system: MCF7 breast
[49] = test system: HCC-2998 colon
[50] = test system: KM12 colon
[51] = test system: EKVX NSCLC
[52] = test system: SK-MEL-2 melanoma
[53] = test system: PC-3 prostate
[54] = test system: SK-MEL-28 melanoma
[55] = test system: MOLT-4 leukemia
[56] = test system: SK-MEL-5 melanoma
[57] = test system: NCI-H23 lung

CCCCCSC1C2C(=O)C(Br)=CC13CCNc1c(O)c4c5c(c13)=[N+]2CCC=5C=N4 (centres undefined)
GI50 [1]: 3.07 µM | TGI [1]: 7.08 µM | GI50 [2]: 2.35 µM | TGI [2]: 4.56 µM | GI50 [3]: 2.47 µM | TGI [3]: 4.79 µM | GI50 [4]: 1.74 µM | TGI [4]: 6.03 µM | GI50 [5]: 0.385 µM | TGI [5]: 1.2 µM | GI50 [6]: 0.545 µM | TGI [6]: 1.55 µM | GI50 [7]: 0.49 µM | TGI [7]: 1.54 µM | GI50 [8]: 2.69 µM | TGI [8]: 4.97 µM | GI50 [9]: 2.78 µM | TGI [9]: 5.08 µM | GI50 [10]: 0.452 µM | TGI [10]: 1.26 µM | GI50 [11]: 2.11 µM | TGI [11]: 4.42 µM | GI50 [12]: 2.1 µM | TGI [12]: 5.34 µM | GI50 [13]: 0.842 µM | TGI [13]: 3.35 µM | GI50 [14]: 1.01 µM | TGI [14]: 11.6 µM | GI50 [15]: 1.75 µM | TGI [15]: 3.97 µM | GI50 [16]: 1.13 µM | TGI [16]: 4.32 µM | GI50 [17]: 3.02 µM | TGI [17]: 6.2 µM | GI50 [18]: 3.03 µM | TGI [18]: 5.8 µM | GI50 [19]: 2.88 µM | TGI [19]: 5.8 µM | GI50 [20]: 3.65 µM | TGI [20]: 11 µM | GI50 [21]: 3.15 µM | TGI [21]: 6.32 µM | GI50 [22]: 2.56 µM | TGI [22]: 5.67 µM | GI50 [23]: 0.256 µM | TGI [23]: 0.609 µM | GI50 [24]: 0.405 µM | TGI [24]: 1.44 µM | GI50 [25]: 3.22 µM | TGI [25]: 6.43 µM | GI50 [26]: 2.61 µM | TGI [26]: 4.96 µM | GI50 [27]: 0.303 µM | TGI [27]: 0.613 µM | GI50 [28]: 0.913 µM | TGI [28]: 3.61 µM | GI50 [29]: 5.47 µM | TGI [29]: 16.7 µM | GI50 [30]: 1.35 µM | TGI [30]: 14.7 µM | GI50 [31]: 4.42 µM | TGI [31]: 16.7 µM | GI50 [32]: 1.87 µM | TGI [32]: 4.42 µM | GI50 [33]: 2.04 µM | TGI [33]: 6.09 µM | GI50 [34]: 0.952 µM | TGI [34]: 3.75 µM | GI50 [35]: 2.62 µM | TGI [35]: 12.2 µM | GI50 [36]: 0.419 µM | TGI [36]: 1.28 µM | GI50 [37]: 0.414 µM | TGI [37]: 1.12 µM | GI50 [38]: 1.51 µM | TGI [38]: 3.68 µM | GI50 [39]: 0.304 µM | TGI [39]: 0.571 µM | GI50 [40]: 0.332 µM | TGI [40]: 1.37 µM | GI50 [41]: 0.417 µM | TGI [41]: 1.5 µM | GI50 [42]: 1.74 µM | TGI [42]: 3.72 µM | GI50 [43]: 3.89 µM | TGI [43]: 9.61 µM | GI50 [44]: 3.01 µM | TGI [44]: 6.61 µM | GI50 [45]: 0.671 µM | TGI [45]: 2.4 µM | GI50 [46]: 2.7 µM | TGI [46]: 5.12 µM | GI50 [47]: 2.98 µM | TGI [47]: 5.34 µM | GI50 [48]: 0.341 µM | TGI [48]: 0.883 µM | GI50 [49]: 1.25 µM | TGI [49]: 3.88 µM | GI50 [50]: 2.53 µM | TGI [50]: 6.26 µM | GI50 [51]: 1.82 µM | TGI [51]: 5.07 µM | GI50 [52]: 2.1 µM | TGI [52]: 5.6 µM | GI50 [53]: 2 µM | TGI [53]: 7.45 µM | GI50 [54]: 2.12 µM | TGI [54]: 4.55 µM | GI50 [55]: 0.762 µM | TGI [55]: 5.73 µM | GI50 [56]: 1.85 µM | TGI [56]: 3.96 µM | GI50 [57]: 1.33 µM | TGI [57]: 6.21 µM
